{"source": "paper PMC2715282", "about": "(Phytochemical analysis : PCA, 2009)", "target": "5-HT7 serotonin receptor (Homo sapiens, UniProt P34969)", "sequence (P34969 whole entry)": "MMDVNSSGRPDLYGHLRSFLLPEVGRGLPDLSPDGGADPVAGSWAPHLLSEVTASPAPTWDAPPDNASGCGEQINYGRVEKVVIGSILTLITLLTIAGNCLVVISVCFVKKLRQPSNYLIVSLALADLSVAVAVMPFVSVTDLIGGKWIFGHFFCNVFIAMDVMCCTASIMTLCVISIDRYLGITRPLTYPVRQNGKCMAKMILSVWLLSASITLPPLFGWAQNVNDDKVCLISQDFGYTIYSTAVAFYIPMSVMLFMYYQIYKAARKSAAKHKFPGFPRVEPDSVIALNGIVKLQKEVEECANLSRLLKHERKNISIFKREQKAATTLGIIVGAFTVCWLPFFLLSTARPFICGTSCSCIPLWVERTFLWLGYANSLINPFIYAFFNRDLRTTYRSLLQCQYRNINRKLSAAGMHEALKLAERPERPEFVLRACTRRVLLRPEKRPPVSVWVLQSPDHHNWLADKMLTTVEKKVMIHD", "test": "competitive radioligand binding versus [3H]LSD", "assay_type": "cell-based", "note": "pIC50: −log10 of the molar value."}
{"substance": "cimicifugic acid KK [compound 4]", "values": [{"measurement": "pIC50", "value": 4.00}]}
